Measured values: patent US20060276465A1, “1,2-di(cyclic) substituted benzene compounds” (Eisai R&D Management Co., Ltd., priority 2003, published 2006)

What was measured:
[1] = tested on: Balb/c mice; assay: Oxazolone-induced colon neutrophil infiltration model; assay type: in vivo; settings: Mus musculus, po, 4 h, colon myeloperoxidase activity vs oxazolone control group, male Balb/c mice, 30 mg/kg orally 30 minutes before intrarectal oxazolone, colons taken four hours after, read-out: Inhibitory rate (%)
Procedure: Evaluation of Compounds in Oxazolone-Induced Colon Neutrophil Infiltration Model
<Sensitization with Oxazolone>
Five- to six-week-old male Balb/c mice (Charles River Japan) were shaven at the abdomen to an approximately 2 cm square area. A 100% ethanol solution containing 3% 4-ethoxymethylene-2-phenyl-2-oxazolin-5-one (hereinafter referred to as “oxazolone”; Sigma) was applied at 150 μl onto the abdomen of each mouse.
<Preparation of Emulsion Containing Oxazolone>
Distilled water (Otsuka Pharmaceutical) was added in an equivalent volume to 100% peanut oil (Kanto Kagaku) containing 1% oxazolone, and the components were vigorously mixed with a glass syringe (Top Co.), to prepare an emulsion containing 0.5% oxazolone.
<Induction with Oxazolone> […]
Each compound was suspended or dissolved in an aqueous solution containing 0.5% methyl cellulose (Wako), and orally administered at 30 mg/kg 30 minutes prior to the intrarectal injection of oxazolone emulsion. […] Specifically, to 10 μl of the obtained supernatant was added 200 μl of 50 mM KPB (pH6.0) containing 0.017% o-dianisidine (Sigma) and 0.0005% hydrogen peroxide (Wako), incubated at 37° C., and the change in absorbance at 450 nm was continuously measured for 1 minute using an EL340 Automated Microplate Reader (BIO-TEK) in kinetic mode. The units were the rate of change in absorbance per minute (mO.D./min.). […]

[2] = tested on: Balb/c mice; assay: DSS-induced colitis model; assay type: in vivo; settings: male Balb/c mice; 1-3% DSS for 5-7 days; 30 mg/kg orally once a day for 5-7 successive days
Description: Evaluation of Compounds in DSS-Induced Colitis Model
A 1-3% solution of dextran sulfate sodium (hereinafter abbreviated as DSS; ICN) in purified water (Otsuka Pharmaceutical) was fed freely to 6- to 7-week-old male Balb/c mice (Charles River Japan) for 5-7 days to induce colitis. Disease Activity Index (hereinafter abbreviated as DAI) scored based on fecal hardness, blood content in feces and body weight change, the number of neutrophils infiltrating the colon and the length of the colon were used as indexes to evaluate compounds. Each compound was suspended or dissolved in an aqueous solution containing 0.5% methyl cellulose (Wako), and orally administered at 30 mg/kg once a day, for 5-7 successive days.

COCCN1CCN(c2ccccc2C2CCC(C(C)(C)C)CC2)CC1.Cl (centres unmarked) [Example 19, 1-[2-(4-t-Butylcyclohexyl)phenyl]-4-(2-methoxyethyl)piperazine hydrochloride]
inhibition in vivo at 30 mg/kg [1]: 53%
improvement in comparison with the DSS control group (DAI, number of neutrophils infiltrating the colon, length of the colon) [2]: particularly good improvement
